The test system of test [1] is Botrvtis cinerea. Kind of test: Example B-1: Action against Botrytis cinerea, fungal growth assay. The note with it: 0.002% active ingredient, PDB broth, 24° C., photometric after 3-4 days. Type of test: cell-based. How it is done: (§1) Action against Botrvtis cinerea—fungal growth assay Conidia of the fungus from cryogenic storage was directly mixed into nutrient broth (PDB potato dextrose broth). After placing a (DMSO) solution of the test compounds (0.002% active ingredient) into a microtiter plate (96-well format) the nutrient broth containing the fungal spores was added. The test plates were incubated at 24° C. and the inhibition of growth was measured photometrically after 3-4 days. The activity of a compound was expressed as fungal growth inhibition (0=no growth inhibition, ratings of 80% to 99% mean good to very good inhibition, 100%=complete inhibition).

Test [2] deals with Mycosphaerella arachidis (Cercospora arachidicola). The test is described as follows: Example B-2: Action against Mycosphaerella arachidis, fungal growth assay. The conditions noted are these: 0.002% active ingredient, PDB broth, 24° C., photometric after 6-7 days. Type of test: cell-based. On the procedure:
as §1, with “Action Against Mycosphaerella arachidis (Early Leaf Spot of Groundnut; Cercospora arachidicola [fanamorph])—Fungal Growth Assay” for “Action against Botrvtis cinerea—fungal growth assay”, “storage were” for “storage was”, “after 6-7” for “after 3-4”

Test [3] deals with Septoria tritici. The test is described as follows: Example B-3: Action against Septoria tritici, fungal growth assay. Format: cell-based. The conditions noted are these: Zymoseptoria tritici; 0.002% active ingredient; PDB broth, 24° C., photometric after 72 hrs. On the procedure:
as §1, with “Action Against Septoria tritici—Fungal Growth Assay” for “Action against Botrvtis cinerea—fungal growth assay”, “storage were” for “storage was”, “was determined” for “was measured”, “after 72 hrs.” for “after 3-4 days.”

The subject of test [4] is Erysiphe graminis f. sp. tritici. Kind of test: Example B-5: Action against Erysiphe graminis f. sp. tritici (wheat powdery mildew), wheat leaf segments. Format: in vivo. The conditions noted are these: Blumeria graminis, foliar, 168 h, 0.02% active ingredient, 7 days after inoculation, read-out: preventive fungicidal activity (inhibition). How it is done:
Action Against Erysiphe graminis f. sp. tritici (Wheat Powdery Mildew) Wheat leaf segments were placed on agar in multiwell plates (24-well format) and sprayed with test solutions (0.02% active ingredient). After drying, the leaf disks were inoculated with a spore suspension of the fungus. After appropriate incubation the activity of a compound was assessed 7 days after inoculation as preventive fungicidal activity.

In test [5] the test system is Puccinia recondita. The test is described as follows: Example B-6: Protective action against Puccinia recondita (brown rust) on wheat leaf segments. Format: in vivo. The conditions noted are these: foliar, 192 h, 0.02% active ingredient, 8 days after inoculation, read-out: preventive fungicidal activity (inhibition). How it is done:
Protective Action Against Puccinia recondita (Brown Rust) on Wheat Wheat leaf segments were placed on agar in multiwell plates (24-well format) and sprayed with test solutions (0.02% active ingredient). After drying, the leaf disks were inoculated with a spore suspension of the fungus. After appropriate incubation the activity of a compound was assessed 8 days after inoculation as preventive fungicidal activity.

Test [6] relates to Pyrenophora teres. Kind of test: Example B-8: Action against Pyrenophora teres (net blotch) on barley leaf segments. Format: in vivo. The conditions noted are these: foliar, 96 h, 0.02% active ingredient, 4 days after inoculation, read-out: preventive fungicidal activity (inhibition). How it is done: Action Against Pyrenophora teres (Net Blotch) on Barley Barley leaf segments were placed on agar in multiwell plates (24-well format) and sprayed with test solutions (0.02% active ingredient). After drying, the leaf disks were inoculated with a spore suspension of the fungus. After appropriate incubation the activity of a compound was assessed 4 days after inoculation as preventive fungicidal activity.

The subject of test [7] is Blumeria graminis f. sp. tritici (Erysiphe graminis f. sp. tritici). Kind of test: Example B-9: Blumeria graminis f. sp. tritici / wheat / leaf disc preventive (comparative). Format: in vivo. The note with it: 4 dpi. On the procedure: Blumeria graminis f. sp. tritici (Erysiphe graminis f. sp. tritici)/Wheat/Leaf Disc Preventive (Powdery mildew on wheat) Wheat leaf segments were placed on agar in a multiwell plate (24-well format) and sprayed with test solutions. After drying, the leaf disks were inoculated with a spore suspension of the fungus. After appropriate incubation the activity of a compound was assessed 4 dpi (days after inoculation) as preventive fungicidal activity.

Test [8] concerns Puccinia recondita. The test is described as follows: Example B-10: Puccinia recondita / wheat / leaf disc preventative (comparative). Type of test: in vivo. The note with it: 8 dpi. On the procedure:
Puccinia recondita/Wheat/Leaf Disc Preventative (Brown Rust) Wheat leaf segments were placed on agar in multiwell plates (24-well format) and sprayed with test solutions. After drying, the leaf disks were inoculated with a spore suspension of the fungus. After appropriate incubation the activity of a compound was assessed 8 dpi (days after inoculation) as preventive fungicidal activity.

The subject of test [9] is Phaeosphaeria nodorum (Septoria nodorum). The test is described as follows: Example B-11: Phaeosphaeria nodorum / wheat / leaf disc preventative (comparative). Format: in vivo. The note with it: 4 dpi. How it is done:
Phaeosphaeria nodorum (Septoria nodorum)/Wheat/Leaf Disc Preventative (Glume Blotch) Wheat leaf segments were placed on agar in a multiwell plate (24-well format) and sprayed with test solutions. After drying, the leaf disks were inoculated with a spore suspension of the fungus. After appropriate incubation the activity of a compound was assessed 4 dpi (days after inoculation) as preventive fungicidal activity.

Test [10] concerns Pyrenophora teres. The test is described as follows: Example B-12: Pyrenophora teres / barley / leaf disc preventive (comparative). Format: in vivo. The note with it: 4 dpi. How it is done:
Pyrenophora teres/Barley/Leaf Disc Preventive (Net Blotch) Barley leaf segments were placed on agar in a multiwell plate (24-well format) and sprayed with test solutions. After drying, the leaf disks were inoculated with a spore suspension of the fungus. After appropriate incubation the activity of a compound was assessed 4 dpi (days after inoculation) as preventive fungicidal activity.

Test [11] relates to Alternaria solani. The test is described as follows: Example B-13: Alternaria solani / tomato / leaf disc (comparative). Type of test: in vivo. The conditions noted are these: 4 dpi. On the procedure: Alternaria solani/Tomato/Leaf Disc (Early Blight) Tomato leaf disks were placed on water agar in multiwell plates (24-well format) and sprayed with test solutions. After drying, the leaf disks were inoculated with a spore suspension of the fungus. After appropriate incubation the activity of a compound was assessed 4 dpi (days after inoculation) as preventive fungicidal activity.

The subject of test [12] is Botryotinia fuckeliana (Botrytis cinerea). The test is described as follows: Example B-14: Botryotinia fuckeliana (Botrytis cinerea) / liquid culture (comparative). Format: cell-based. The conditions noted are these: 24° C., photometric after 3-4 days, read-out: inhibition of growth. On the procedure: Botryotinia fuckeliana (Botrytis cinerea)/Liquid Culture (Gray Mould) Conidia of the fungus from cryogenic storage were directly mixed into nutrient broth. After placing a (DMSO) solution of the test compounds into a microtiter plate (96-well format) the nutrient broth containing the fungal spores was added. The test plates were incubated at 24° C. and the inhibition of growth is determined photometrically after 3-4 days.

Test [13] concerns Mycosphaerella arachidis (Cercospora arachidicola). The test is described as follows: Example B-15: Mycosphaerella arachidis / liquid culture (comparative). Type of test: cell-based. The conditions noted are these: 24° C., photometric after 6-7 days, read-out: inhibition of growth. On the procedure:
Mycosphaerella arachidis (Cercospora arachidicola)/Liquid Culture (Early Leaf Spot) Conidia of the fungus from cryogenic storage were directly mixed into nutrient broth (PDB potato dextrose broth). After placing a (DMSO) solution of the test compounds into a microtiter plate (96-well format) the nutrient broth containing the fungal spores was added. The test plates were incubated at 24° C. and the inhibition of growth is measured photometrically after 6-7 days.

Test [14] has as its system Mycosphaerella praminicola (Seotoria tritici). Kind of test: Example B-16: Mycosphaerella graminicola (Septoria tritici) / liquid culture (comparative). Format: cell-based. The conditions noted are these: 96 h, 24° C., photometric after 4 days, read-out: inhibition of growth. How it is done: Mycosphaerella praminicola (Seotoria tritici)/Liquid Culture (Septoria Blotch) Conidia of the fungus from cryogenic storage were directly mixed into nutrient broth (PDB potato dextrose broth). After placing a (DMSO) solution of the test compounds into a microtiter plate (96-well format) the nutrient broth containing the fungal spores was added. The test plates were incubated at 24° C. and the inhibition of growth is measured photometrically after 4 days.

Test [15] relates to Gaeumannomyces graminis. The test is described as follows: Example B-17: Gaeumannomyces graminis / liquid culture (comparative). Type of test: cell-based. The note with it: 24 C, photometric after 2-3 days, read-out: inhibition of growth. How it is done:
Gaeumannomyces graminis/Liquid Culture (Take-All of Cereals) Mycelial fragments of the fungus from cryogenic storage were directly mixed into nutrient broth (PDB potato dextrose broth). After placing a (DMSO) solution of the test compounds into a microtiter plate (96-well format) the nutrient broth containing the fungal spores was added. The test plates were incubated at 24 C and the inhibition of growth was determined photometrically after 2-3 days.

Test [16] relates to Monopraphella nivalis (Microdochium nivale). The test is described as follows: Example B-18: Monographella nivalis (Microdochium nivale) / liquid culture (comparative). Format: cell-based. The conditions noted are these: 24° C., photometric after 4-6 days, read-out: inhibition of growth. How it is done: Monopraphella nivalis (Microdochium nivale)/Liquid Culture (Foot Rot Cereals Conidia of the fungus from cryogenic storage were directly mixed into nutrient broth (PDB potato dextrose broth). After placing a (DMSO) solution of the test compounds into a microtiter plate (96-well format) the nutrient broth containing the fungal spores was added. The test plates were incubated at 24° C. and the inhibition of growth is measured photometrically after 4-6 days.

The structures appear in SMILES notation.

Consider `CON(C(=O)c1cn(C)nc1C(F)F)C(C)c1cccc(Oc2ccc(Cl)cc2)c1` (stereo not drawn) [Compound 1.021, 3-difluoromethyl-1-methyl-1H-pyrazole-4-carboxylic acid {1-[3-(4-chloro-phenoxy)-phenyl]-ethyl}-methoxy-amide], for which the inhibition at 0.002 % strength in [1], in test [2] and in test [3] was no less than 80% throughout. For the same compound, the inhibition at 0.02 % strength in test [4], in test [5] and in [6] was no less than 80% throughout.
With `CC(NC(=O)c1cn(C)nc1C(F)F)c1ccc(Cl)cc1Cl` (stereo not drawn) [No. 1.042 (prior art), reference compound], the preventive fungicidal activity in test [7] (20 ppm) stood at 0; in test [7] (60 ppm), 50; in test [7] (200 ppm) it was 100; in test [8] (20 ppm), 0; in test [8] (60 ppm), 0; in [8] (200 ppm), 50. Also, the preventive fungicidal activity is reported as 0 in test [9] (20 ppm); 0 in [9] (60 ppm); 70 in test [9] (200 ppm); 50 in [10] (20 ppm); 90 in [10] (60 ppm); 100 in [10] (200 ppm). For the same compound, the preventive fungicidal activity in [11] (20 ppm) was found to be 0; in [11] (60 ppm) it was 20; in test [11] (200 ppm) it was 70. The inhibition at 20 ppm was found to be 0% in test [12] (20 ppm); 100% in test [13] (20 ppm); 100% in test [14] (20 ppm); 0% in test [15] (20 ppm); 0% in [16] (20 ppm). Also, the inhibition at 60 ppm in [12] (60 ppm) worked out at 20%; in test [13] (60 ppm) it was 100%; in test [14] (60 ppm), 100%; in test [15] (60 ppm), 0%; in test [16] (60 ppm), 50%. Also, the inhibition at 200 ppm in [12] (200 ppm) is 50%. Also, the inhibition at 6 ppm came to 0% in test [13] (6 ppm), 20% in test [14] (6 ppm), 0% in [15] (6 ppm) and 0% in test [16] (6 ppm).
On to `CON(Cc1cccc(-c2ccc(Cl)cc2)c1)C(=O)c1cn(C)nc1C(F)F` [Compound 1.098, 3-difluoromethyl-1-methyl-1H-pyrazole-4-carboxylic acid (4′-chloro-biphenyl-3-ylmethyl)-methoxy-amide], for which the inhibition at 0.002 % strength in test [1], in test [2] and in test [3] was no less than 80% each time. Further, the inhibition at 0.02 % strength in [4], in [5] and in test [6] was no less than 80% each time.
Consider `CON(C(=O)c1cn(C)nc1C(F)F)C(C)c1ccc(Oc2ccc(Cl)cc2)cc1` (stereo not drawn) [Compound 1.010, 3-difluoromethyl-1-methyl-1H-pyrazole-4-carboxylic acid {1-[4-(4-chloro-phenoxy)-phenyl]-ethyl}-methoxy-amide], for which the inhibition at 0.002 % strength in test [1], in [2] and in test [3] was no less than 80% throughout. Further, the inhibition at 0.02 % strength in [4], in [5] and in test [6] was no less than 80% throughout.
As to `CON(C(=O)c1cn(C)nc1C(F)F)C(C)c1cccc(-c2ccc(Cl)cc2)c1` (stereo not drawn) [Compound 1.019, 3-difluoromethyl-1-methyl-1H-pyrazole-4-carboxylic acid [1-(4′ chloro-biphenyl-3-yl)-ethyl]-methoxy-amide], the inhibition at 0.002 % strength in [1], in [2] and in test [3] was no less than 80% throughout. In addition, the inhibition at 0.02 % strength in test [4], in [5] and in test [6] was no less than 80% throughout.

These data come from patent publication US8357634B2, “N-alkoxycarboxamides and their use as microbiocides” (Syngenta Crop Protection LLC, priority 2009, dated 2013).
